{"source": "patent US20180185375A1", "about": "“COMPOSITIONS AND METHODS FOR THE TREATMENT OF SUBSTANCE USE DISORDERS, ADDICTION, AND PSYCHIATRIC DISORDERS” (EMBERA NEUROTHERAPEUTICS, INC., priority 2015, published 2018)", "origin": "cited, not measured here", "key": {"[1]": {"test_system": "adrenal gland", "details": "in vivo"}, "[2]": {"test_system": "cocaine self-administration in rats"}, "[3]": {"test_system": "cortisol levels", "details": "healthy subjects"}, "[4]": {"details": "12.5 mg/kg metyrapone tested alone, rats"}}}
{"smiles": "Clc1ccc(C(c2ccccc2Cl)C(Cl)Cl)cc1", "note": "(stereo not drawn) [Mitotane]", "values": [{"measurement": "doses at which it is an adrenolytic agent", "setting": "[1]", "result": "greater than 4 g per day"}]}
{"smiles": "Cc1nnc2n1-c1ccc(Cl)cc1C(c1ccccc1)=NC2", "note": "[alprazolam]", "values": [{"measurement": "effect of the dose alone on cocaine self-administration", "setting": "[2]; alprazolam 1.0 mg/kg, ip, alone", "result": "ineffective"}]}
{"smiles": "CCOC(=O)c1cncn1[C@H](C)c1ccccc1", "note": "[etomidate]", "values": [{"measurement": "time after which infusion resulted in significant suppression of cortisol levels", "setting": "[3]", "result": 5, "unit": "h"}, {"measurement": "time of maximal effects on cortisol levels", "setting": "[3]; infusion", "result": 11, "unit": "h"}]}
{"smiles": "CC(C)(C(=O)c1cccnc1)c1cccnc1", "note": "[metyrapone]", "values": [{"measurement": "effect on cocaine-maintained responding", "setting": "[2]; [4]", "result": "no effect"}, {"measurement": "effect on food-maintained responding", "setting": "[2]; [4]", "result": "no effect"}]}
